Test results published in US10385019B2, “Inhibitors of EGFR and methods of use thereof” (Dana-Farber Cancer Institute, Inc., priority 2015, dated 2019).

Biological target: EGFR T790M/L858R Ba/F3 cell line (Homo sapiens, UniProt P00533, T790M/L858R, cells depend on it)
Assay: Ba/F3 cell proliferation model
Assay type: cell-based, murine
Settings: combined with cetuximab (% cetuximab, 1.0 μM drug concentration with 1.0 μg/mL cetuximab)
Summary of the method: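 Murine Ba/F3 cells made IL-3-independent by retroviral EGFR L858R/T790M, selected in puromycin (2 μg/ml) and kept in RPMI 1640 with 10% FBS. Cells were exposed to serially diluted compound for 72 h, with growth read by MTS assay in six wells per point and ≥3 repeats. Sigmoidal dose-response non-linear regression gave the values.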

Sequence of EGFR T790M/L858R Ba/F3 cell line (P00533 whole entry T790M/L858R): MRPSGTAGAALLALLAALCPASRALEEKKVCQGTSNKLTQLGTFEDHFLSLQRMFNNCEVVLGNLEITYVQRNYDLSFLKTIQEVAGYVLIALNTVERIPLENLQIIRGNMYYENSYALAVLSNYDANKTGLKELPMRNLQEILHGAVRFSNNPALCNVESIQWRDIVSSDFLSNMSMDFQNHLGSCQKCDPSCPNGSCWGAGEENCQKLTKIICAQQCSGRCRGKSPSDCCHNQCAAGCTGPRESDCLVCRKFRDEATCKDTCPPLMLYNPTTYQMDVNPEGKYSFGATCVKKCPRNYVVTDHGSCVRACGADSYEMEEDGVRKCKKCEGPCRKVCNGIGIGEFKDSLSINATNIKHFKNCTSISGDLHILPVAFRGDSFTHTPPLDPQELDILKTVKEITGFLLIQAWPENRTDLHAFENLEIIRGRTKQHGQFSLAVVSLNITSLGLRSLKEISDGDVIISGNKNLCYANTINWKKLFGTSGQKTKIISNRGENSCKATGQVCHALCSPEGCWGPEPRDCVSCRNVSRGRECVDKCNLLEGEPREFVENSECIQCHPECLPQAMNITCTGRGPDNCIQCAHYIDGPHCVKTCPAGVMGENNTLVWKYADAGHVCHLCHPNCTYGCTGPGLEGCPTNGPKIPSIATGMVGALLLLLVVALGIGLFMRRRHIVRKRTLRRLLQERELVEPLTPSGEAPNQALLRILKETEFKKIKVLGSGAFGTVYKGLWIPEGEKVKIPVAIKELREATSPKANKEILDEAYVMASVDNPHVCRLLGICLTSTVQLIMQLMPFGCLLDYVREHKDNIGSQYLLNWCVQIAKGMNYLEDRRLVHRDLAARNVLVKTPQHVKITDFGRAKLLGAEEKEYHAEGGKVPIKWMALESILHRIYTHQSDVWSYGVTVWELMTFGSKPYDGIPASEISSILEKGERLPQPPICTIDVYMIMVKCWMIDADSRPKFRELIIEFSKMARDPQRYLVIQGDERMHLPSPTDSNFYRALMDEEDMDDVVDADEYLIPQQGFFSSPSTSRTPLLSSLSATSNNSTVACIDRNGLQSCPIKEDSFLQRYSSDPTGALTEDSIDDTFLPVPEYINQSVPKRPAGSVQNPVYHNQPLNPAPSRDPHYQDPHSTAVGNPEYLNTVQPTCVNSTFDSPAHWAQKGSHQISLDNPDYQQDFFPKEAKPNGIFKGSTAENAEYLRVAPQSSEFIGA

SMILES | Activity (% inhibition)
CN(C)CCCCNC(=O)c1ccc(-c2ccc3c(c2)C(=O)N([C@@H](C(=O)Nc2nccs2)c2ccccc2)C3)cc1 [Compound I-82, (R)-N-(4-(dimethylamino)butyl)-4-(3-oxo-2-(2-oxo-1-phenyl-2-(thiazol-2-ylamino)ethyl)isoindolin-5-yl)benzamide] | C (a % inhibition of between about 25% to about 50%)
O=C(Nc1nccs1)[C@@H](c1ccccc1)N1Cc2cc(-c3ccc4c(c3)OCCO4)ccc2C1=O [Compound I-103, (R)-2-(5-(2,3-dihydrobenzo[b] [1,4]dioxin-6-yl)-1-oxoisoindolin-2-yl)-2-phenyl-N-(thiazol-2-yl)acetamide] | C (a % inhibition of between about 25% to about 50%)
CCn1cc(-c2ccc3c(c2)C(=O)N([C@@H](C(=O)Nc2nccs2)c2ccccc2)C3)cn1 [Compound I-63, (R)-2-(6-(1-ethyl-1H-pyrazol-4-yl)-1-oxoisoindolin-2-yl)-2-phenyl-N-(thiazol-2-yl)acetamide] | C (a % inhibition of between about 25% to about 50%)
O=C(Nc1nncs1)[C@H](c1ccccc1)N1Cc2ccccc2C1=O [Compound I-42, (S)-2-(1-oxoisoindolin-2-yl)-2-phenyl-N-(1,3,4-thiadiazol-2-yl)acetamide] | A (a % inhibition of about 75%)
O=C(NCCN1CCOCC1)c1csc(NC(=O)[C@@H](c2ccccc2)N2Cc3ccccc3C2=O)n1 [Compound I-10, (R)-N-(2-morpholinoethyl)-2-(2-(1-oxoisoindolin-2-yl)-2-phenylacetamido)thiazole-4-carboxamide] | A (a % inhibition of about 75%)
O=C(NCCN1CCOCC1)c1ccc(-c2ccc3c(c2)C(=O)N([C@@H](C(=O)Nc2nccs2)c2ccccc2)C3)cc1 [Compound I-83, (R)-N-(2-morpholinoethyl)-4-(3-oxo-2-(2-oxo-1-phenyl-2-(thiazol-2-ylamino)ethyl)isoindolin-5-yl)benzamide] | D (a % inhibition of between about 0% to about 25%)
O=C(Nc1cncnc1)[C@@H](c1ccccc1)N1Cc2ccc(-c3ccc4[nH]ccc4c3)cc2C1=O [Compound I-134, (R)-2-(6-(1H-indol-5-yl)-1-oxoisoindolin-2-yl)-2-phenyl-N-(pyrimidin-5-yl)acetamide] | A (a % inhibition of about 75%)
